Test results reported in PMC10222270, “Natural Product-Based Screening for Lead Compounds Targeting SARS CoV-2 M^pro” (Pharmaceuticals, 2023).
“And” between values parts separate entries of the source, which are not always exact repeats. Equal values may be shown once.

Target: T1, SARS CoV-2 M^pro (Severe acute respiratory syndrome coronavirus 2, UniProt P0DTD1)
T1 construct: The main protease (M^pro) is a part of the polyprotein chain, also named 3C-like protease; SUMO (cleaved yes); His; made in house; host or cells: Escherichia coli BL21(DE3)
Assay: biochemical
Type: biochemical
Conditions: for inhibition at 80 µM: read-out: Inhibition%(80μM); for result of retest over a concentration range: gradient concentrations

Compound	Inhibition%(80μM)	inhibition at 80 µM	result of retest over a concentration range
CC(C)=CCC[C@]1(C)C=Cc2c(O)c3c(c(CC=C(C)C)c2O1)O[C@]12C(=C[C@@H]4C[C@H]1C(C)(C)O[C@@]2(C/C=C(/C)C(=O)O)C4=O)C3=O [Gambogic Acid]	78.61% and 79.43%	78.5%	
O=C1O[C@H]2[C@@H]3OC(=O)c4cc(O)c(O)c(O)c4-c4c(cc(O)c(O)c4O)C(=O)OC[C@H]2O[C@@H](OC(=O)c2cc(O)c(O)c(O)c2)[C@@H]3OC(=O)c2cc(O)c(O)c3c2[C@@H]2C1=CC(=O)[C@](O)(O3)C2(O)O [Geraniin]	70.07% and 71.11%	71.6%	
CCCCCC/C=C\CCCCCCCCCc1cccc(O)c1C(=O)O [Ginkgolic Acid C17:1]	100.63% and 101.61%	102%	
Oc1cc(O)cc(/C=C/c2c(O)cccc2O)c1 [Gnetol]	81.39% and 81.62%	81.5%	
O=C(O)CCc1ccc(O)c(O)c1 [Hydrocaffeic Acid]	90.29% and 90.08%	88.3%	
O=c1oc2c(O)cc(O)cc2c2oc3cc(O)c(O)cc3c12 [Isodemethylwedelolacton]	99.38% and 99.79%	99.7%	
C[C@@H]1O[C@@H](OC[C@H]2O[C@@H](OCCc3ccc(O)c(O)c3)[C@H](O)[C@@H](OC(=O)/C=C/c3ccc(O)c(O)c3)[C@@H]2O)[C@H](O)[C@H](O)[C@H]1O [Isoforsythiaside]	100.44% and 101.30%	100%	
NCCCN(CCCCNCCCNC(=O)CCc1ccc(O)c(O)c1)C(=O)CCc1ccc(O)c(O)c1 [Kukoamine B]	103.22% and 104.32%	104%	
O=c1c(O)c(-c2cc(O)c(O)c(O)c2)oc2cc(O)cc(O)c12 [Myricetin]	90.18% and 90.28%	90.6%	
CCCCCCCCCCCCCC(=O)O [Myristic Acid]	82.11% and 84.30%	85%	
CCCCCCCC/C=C\CCCCCCCCCCCCCC(=O)O [Nervonic Acid]	89.75% and 93.14%	93.6%	
CCCCCCCC/C=C\CCCCCCCC(=O)O [Oleic Acid]	104.37% and 103.27%	104%	
C/C=C1/[C@H](O[C@@H]2O[C@H](CO)[C@@H](O)[C@H](O)[C@H]2O)OC=C(C(=O)OC)[C@H]1CC(=O)OCCc1ccc(O)c(O)c1 [Oleuropein]	97.72%	96.6%	
C=C1C(=O)[C@]23[C@H](O)[C@H]1CC[C@H]2[C@@]12CO[C@]3(O)[C@@H](O)[C@@H]1C(C)(C)CC[C@@H]2O [Oridonin]	83.80% and 85.60%	84.3%	
CC(=O)/C=C/c1ccc(O)c(O)c1 [Osmundacetone]	98.31% and 98.46%	98.7%	
CCCCCC/C=C\CCCCCCCC(=O)O [Palmitoleic Acid]	103.78% and 102.80%	103%	
CCCCCCCCCCCCCCC(=O)O [Pentadecanoic Acid]	92.58% and 91.46%	92.3%	
CCCCCCCCCCC/C=C\CCCCC(=O)O [Petroselinic Acid]	105.29% and 103.73%	104%	
O=P(O)(O)O[C@H]1[C@H](OP(=O)(O)O)[C@@H](OP(=O)(O)O)[C@H](OP(=O)(O)O)[C@@H](OP(=O)(O)O)[C@H]1OP(=O)(O)O [Phytic Acid]	97.45% and 98.02%	97.6%	

Compound	Inhibition%(80μM)	inhibition at 80 µM	result of retest over a concentration range
O=C(/C=C/c1ccc(O)c(O)c1)OC[C@H]1O[C@@H](OCCc2ccc(O)c(O)c2)[C@H](O)[C@@H](O[C@@H]2O[C@H](CO)[C@@H](O)[C@H](O)[C@H]2O)[C@@H]1O [Plantainoside D]	99.79% and 99.90%	101%	
CC1=CC(=O)c2c(O)cccc2C1=O [Plumbagin]	74.76% and 75.47%	70.2%	
CCCOC(=O)c1cc(O)c(O)c(O)c1 [Propyl Gallate]	78.61% and 79.43%	78.5%	
O=C(/C=C/c1ccc(O)c(O)c1)O[C@H](Cc1ccc(O)c(O)c1)C(=O)O [Rosmarinic Acid]	46.31% and 76.08% and 69.63%		
C[n+]1cc2c3c(ccc2c2ccc4cc5c(cc4c21)OCO5)OCO3 [Sanguinarine chloride]	108.15%	108%	
O=c1cc(-c2ccc(O)cc2)oc2cc(O)c(O)c(O)c12 [Scutellarein]	85.01% and 83.89%	84.1%	
O=C(OC[C@H]1O[C@@H](OC(=O)c2cc(O)c(O)c(OC(=O)c3cc(O)c(O)c(O)c3)c2)[C@H](OC(=O)c2cc(O)c(O)c(OC(=O)c3cc(O)c(O)c(O)c3)c2)[C@@H](OC(=O)c2cc(O)c(O)c(OC(=O)c3cc(O)c(O)c(O)c3)c2)[C@@H]1OC(=O)c1cc(O)c(O)c(OC(=O)c2cc(O)c(O)c(O)c2)c1)c1cc(O)c(O)c(OC(=O)c2cc(O)c(O)c(O)c2)c1 [Tannic Acid]	88.66% and 87.66%	89.6%	
C[C@@H]1CC[C@]2(C(=O)O)CC[C@]3(C)C(=CC[C@@H]4[C@@]5(C)CC[C@H](O[C@@H]6OC[C@H](O)[C@H](O)[C@H]6O)C(C)(C)[C@@H]5CC[C@]43C)[C@@H]2[C@]1(C)O [Ziyuglycoside II]	70.21% and 74.61% and 47.27%		
CC(C)=CCC/C(C)=C/Cc1cc(-c2coc3cc(O)ccc3c2=O)ccc1O [corylifol A, Corylifol A]	100.01% and 99.99%	100%	unable to generate a whole curve within the concentration range
Oc1cc2c(cc1O)[C@@H]1c3ccc(O)c(O)c3OC[C@]1(O)C2 [hematoxylin, Hematoxylin]	103.56% and 103.03%	104%	
C[n+]1cc2c3c(ccc2c2ccc4cc5c(cc4c21)OCO5)OCO3 [sanguinarine, Sanguinarine]	107.86% and 107.40% and 108.34%		no inhibitory effect on M^pro when retested
CC(C)=CCC(OC(=O)C=C(C)C)C1=CC(=O)c2c(O)ccc(O)c2C1=O (stereo not drawn) [β,β-dimethylacrylshikonin]	75.31% and 77.34% and 77.10%		
(-)-Epigallocatechin	78.95% and 75.28% and 77.55%		
Echinacoside	93.62% and 90.06% and 89.84%		
Forsythoside B	92.91% and 95.11% and 93.46%		
Harmol	74.50% and 81.33% and 79.31%		
Maleimide	103.98% and 104.37% and 103.27%		
Tubuloside A	87.62% and 90.37% and 86.87%		
